Patent publication US7638283B2, “Amyloid β protein (globular assembly and uses thereof)” (Northwestern University, priority 1997, dated 2009)

How the values were obtained:
[1] = system: B103 cells; assay: FACScan assay for binding to intact cells; parameters: species or system rat
Description: For flow cytometry, cells are dissociated with 0.1% trypsin and plated at least overnight onto tissue culture plastic at low density. Cells are removed with cold PBS/0.5 mM EDTA, washed three times and resuspended in ice-cold PBS to a final concentration of 500,000 cells/mL. Cells are incubated in cold PBS with amyloid β oligomers prepared as described in Example 1, except that 10% of the amyloid β is an amyloid β 1-42 analog containing biocytin at position 1 replacing aspartate. Oligomers with and without inhibitor compounds present are added to the cells for 24 hours. The cells are washed twice in cold PBS to remove free, unbound amyloid β oligomers and resuspended in a 1:1,000 dilution of avidin conjugated to fluorescein and incubated for one hour at 4° C. with gentle agitation. Cells are analyzed by a Becton-Dickinson Fluorescence Activated Cell Scanner (FACScan). 10,000 or 20,000 events are collected for both forward scatter (size) and fluorescence intensity, and the data are analyzed by Consort 30 software (Becton-Dickinson). An alternative procedure uses amyloid β-specific antibodies and fluorescent secondary antibody instead of avidin, eliminating the need to incorporate 10% of the biotynylated amyloid β analog. FIG. 2 illustrates the ADDL-cell binding FACS analysis, and FIG. 3 illustrates the utility of the FACS assay for identification of ADDL-blocking compounds.

[2] = system: brain slice cultures lacking a functional fyn gene; assay: Brain slice cultures from mice that lack a functional fyn gene; type: cell-based, mouse; settings: compared to vehicle controls
Description: (§1) An adult mouse is sacrificed by carbon dioxide inhalation, followed by rapid decapitation. The head is emersed in cold, sterile dissection buffer (94 ml Gey's balanced salt solution, pH 7.2, supplemented with 2 mL 0.5M MgCl2, 2 ml 25% glucose, and 2 mL 1.0 M Hepes.), after which the brain is removed and placed on a sterile Sylgard-coated plate. The cerebellum is removed and a mid-line cut is made to separate the cerebral hemispheres. Each hemisphere is sliced separately. The hemisphere is placed with the mid-line cut down and a 30 degree slice from the dorsal side is made to orient the hemisphere. The hemisphere is glued cut side down on the plastic stage of a Campden tissue chopper (previously wiped with ethanol) and emersed in ice cold sterile buffer. Slices of 200 μm thickness are made from a lateral to medial direction, collecting those in which the hippocampus is visible. […] Cell death is measured using the LIVE/DEAD® assay kit (Molecular Probes, Eugene, Oreg.). This a dual-label fluorescence assay in which live cells are detected by the presence of an esterase that cleaves calcein-AM to calcein, resulting in a green fluorescence. Dead cells take up ethidium homodimer, which intercalates with DNA and has a red fluorescence. […] The MetaMorph image analysis system is used to quantify the number and/or area of cells showing green or red fluorescence. […]

[3] = system: primary astrocytes; assay: Activation of primary astrocyte cultures; type: cell-based
[4] = Neurotoxicity of amyloid β fractions and samples (test system not specified); type: cell-based; settings: supernatant compared with unfractionated amyloid β aggregated under literature conditions
[5] = system: hippocampal neurons; assay: Neuronal viability in injected animals (brain slices after the LTP experiment); type: in vivo, mouse; settings: 20 nL injected into hippocampal region
Description: After the LTP experiment is performed, animals are allowed to remover for various times and then sacrificed using sodium pentobarbitol asesthetic and perfusion with 4% paraformaldehye. For viability studies, times of 3 hours, 24 hours, 3 days, and 7 days are used. The brain is cryoprotected with 30% sucrose and then sectioned ([…]) with a microtome. Sections are placed on slides subbed with gelatin and stained initially with cresyl violet. Cell loss is measured by counting cell bodies in the dentate gyrus, CA3, CA1, and entorhinal cortex and is correlated with dose and time of exposure of ADDLs.

[6] = system: hippocampal brain slice cultures; assay: Brain slice assay (LIVE/DEAD cell death); type: cell-based, mouse
Description: as §1

[7] = system: serum starved B103 cells; assay: Cell morphology by phase microscopy; type: cell-based, rat
Description: Cultures are grown to low density (50-60% confluence). To initiate the experiment, the cells are serum starved in F12 media for 1 hour. Cells are then incubated for 3 hours with amyloid β oligomers prepared as described in Example 1, with and without inhibitor compounds added to the cells for […]. After 3 hours, cells are examined for morphological differences or fixed for immunofluorescence labeling. Samples are examined using the MetaMorph Image Analysis system and an MRI video camera (Universal Imaging, Inc.).

[8] = system: fyn kinase; assay: fyn kinase activity in B103 cells; type: cell-based, rat
[9] = system: neuronal cell cultures; assay: Neurotoxicity in neuronal cell cultures; type: cell-based
Description: PC12 cells are passaged at 4×10^4 cell/well on a 96-well culture plate and grown for 24 hours in DMEM+10% fetal calf serum+1% S/P/F (streptomycin, penicillin, and fungizone). Plates are treated with 200 μg/mL poly-1-lysine for 2 hours prior to cell plating to enhance cell adhesion. One set of six wells is left untreated and fed with fresh media, while another set of wells is treated with the vehicle control (PBS containing 10% 0.01 N HCl, aged o/n at RT). Positive controls are treated with triton (1%) and Na Azide (0.1%) in normal growth media. Amyloid β oligomers prepared as described in Example 1, with and without inhibitor compounds present are added to the cells for 24 hours. After the 24 hour incubation, MTT (0.5 mg/mL) is added to the cells for 2.5 hours (11 μL of 5 mg/ml stock solubilized in PBS into 100 μL of media). Healthy cells reduce the MTT into a formazan blue colored product. After the incubation with MTT, the media is aspirated and 100 μL of 100% DMSO is added to lyse the cells and dissolve the blue crystals. The plate was incubated for 15 min at RT and read on a plate reader (ELISA) at 550 nm.
HN2 cells are passaged at 4×10^4 cells/well on a 96-well culture plate and grown for 24 hours in DMEM+10% fetal calf serum+1% S/P/F (streptomycin, penicillin, and fungizone). […] The plate is incubated for 15 min at RT and read on a plate reader (ELISA) at 550 nm.

[10] = system: hippocampus, synaptic activity (LTP); assay: LTP assay in injected animals; type: in vivo, mouse
Source text: Injections of intact animals: Mice are anesthesized with urethane and placed in a sterotaxic apparatus. Body temperature is maintained using a heated water jacket pad. The brain surface is exposed through holes in the skull. Bregma and lambda positions for injection into the middle molecular layer of hippocampus are 2 mm posterior to bregma, 1 mm lateral to the midline, and 1.2-1.5 mm ventral to the brain surface. Amyloid β oligomer injections are by nitrogen puff through ˜[…] diameter glass pipettes. Volumes of 20-50 nL of amyloid β oligomer solution (180 nM of amyloid β) are given over the course of an hour. The animal is allowed to rest for varying time periods before the LTP stimulus is given.
LTP in injected animals: Experiments follow the paradigm established Routtenberg and colleagues for LTP in mice (Namgung, et al., 1995). Perforant path stimulation from the entorhinal cortex is used, with recording from the middle molecular layer and the cell body of the dentate gyrus. […] Some sections are placed on slides subbed with gelatin and others are analyzed using a free-floating protocol. […]
Wave forms are analyzed by machine as described previously (Colley, 1990, J. Neurosci.). […]

Substance	receptor binding of ADDLs to B103 cells ([1]; 10% biotinylated amyloid β 1-42, fluorescent avidin conjugate, FACS)	neurotoxicity in brain slice cultures from mice lacking a functional fyn gene [2]	activation of astrocytes [3]	mRNA for IL-1, inducible nitric oxide synthase, apo E, Apo J and α1-antichymotrypsin in astrocytes [3]	neurotoxicity of amyloid β fractions/samples [4]	cell death in brain slices after the LTP experiment [5]	neurotoxicity in brain slice cultures ([6]; supernatant of amyloid β 1-42 incubated in F12 at 4° C., Live/Dead fluorescence assay)	morphology of serum starved B103 cells [7]	fyn kinase activity in B103 cells [8]	neurotoxicity in neuronal cell cultures [9]	LTP consolidation phase, synaptic activity as cell body spike amplitude ([10]; 20 nL injected into hippocampal region 60-70 minutes prior to LTP, over the subsequent 2 hours, compared with control animals)	LTP stimulation phase ([10]; 20 nL injected into hippocampal region of adult mouse 60-70 minutes prior to LTP)	blocking of ADDL binding in the receptor assay ([1]; at 10 μM)	blocking of the neurotoxic effects of ADDLs in the hippocampal brain slice assay ([6]; at 10 μM)
ADDLs: amyloid β peptide assembled into non-fibrillar oligomeric structures; soluble globular assemblies of amyloid β 1-42	saturable	no increased neurotoxicity	become activated	become elevated	significantly higher neurotoxicity	no cell death had occurred	highly neurotoxic	rapid morphological change	activate fyn kinase activity	highly neurotoxic	significant, continuing decline in synaptic activity	identical with saline control injections		
amyloid β 1-40 [reference compound]													capable of blocking ADDL binding	capable of blocking the neurotoxic effects of ADDLs
